Assay results published in a melting point compilation (Tetko et al.; mined from patent text by program, amines drawn as free bases though some values may be those of a salt).

| Compound | melting point [°C] |
| --- | --- |
| CC#Cc1cn(C2OC(COC(C)=O)C(OC(C)=O)C2OC(C)=O)c(=O)[nH]c1=O (stereo not given) | 150 to 157 |
| Cc1ccc(Sc2cc([N+](=O)[O-])cc3c2C(=O)OC3=O)cc1 | 180 to 182 |
| Cc1cc(-c2noc(N(C)C)n2)ccc1-c1ccc(C(=O)N2CCCc3cc4c(cc32)C2(CCN(C)CC2)CO4)cc1 | 118 to 120 |
| O=C1Cc2ccccc2N1CCCl | 74 |
| COc1cc2c(cc1Nc1ncc(Cl)c(Nc3ccc(N(C)C)cc3OC)n1)CCN(CC(=O)N(C)C)CC2 | 69 to 83 |
| CCn1cc(C(c2ccc(Cl)cc2Cl)n2cncn2)c2cc(Br)ccc21 (stereo not given) | 124 to 126 |
| CC(C)c1ccc2[nH]c3c(c2c1)Cc1ccccc1-3 | 193 |
| OCC(CO)Cc1ccccc1 | 64 to 65 |
| COC(=O)CCCC#Cc1cc(C)c2oc(=O)n(C)c2c1 | 97 to 98 |
| CCOC(=O)c1snc(OCC)c1Br | 40 to 43 |
| O=C(O)c1cn(CC2CC2)c2ccccc12 | 157 |
| CCOc1ccc(-n2c(N)cc(=O)nc2SC)cc1 | 177 to 181 |
| Cc1onc2c(=O)[nH]nc(-c3ccc(O)cc3)c12 | 268 to 276 |
| CC#CC(C)(C)NC(=O)C(CC)Oc1ccc2ccncc2c1 (stereo not given) | 149 to 150 |
| O=C1CN2CCCC1C2 (stereo not given) | 83 to 87 |
| CC(=O)c1ccc(-c2ccc(Cl)cc2)c(N)c1 | 139 to 140 |
| Cc1n[nH]c2c1C(=O)CC(C)(C)C2 | 103 to 104 |

| Compound | melting point [°C] |
| --- | --- |
| CCOc1cc2ncc(C#N)c(Nc3ccc(Sc4nccn4C)c(Cl)c3)c2cc1OCC | 285 to 290 |
| NNc1nc(Cl)nc2ccccc12 | > 280 |
| CC1(C)CCC(N2c3ccccc3Oc3ccc(C(F)(F)F)cc32)=N1 | 64 to 67 |
| O=C1NCCc2[nH]c3c(Br)cccc3c21 | 268 to 270 |
| CCOC(=O)c1nc(C=Cc2cccc(C(F)(F)F)c2)oc1C | 103 to 104 |
| CC(C)C(=O)N1CCNC1=Nc1ccc(Cl)cc1Cl | 147 to 148 |
| CC=C1CC2C3CCc4cc(OC)ccc4C3CCC2(CC)C1=O (stereo not given) | 155 to 157 |
| CC1Oc2ccc(Cn3ccnc3)cc2NC1N (stereo not given) | 152 to 156 |
| O=C(O)c1ccc(-c2cnc3c(O)ncnc3n2)cc1 | > 300 |
| COCCOc1cc2ncnc(Oc3ccc(Cl)cc3F)c2cc1OC | 167 to 168 |
| O=C1CSC(N2CCN=C(c3ccccc3Cl)c3cc(Cl)ccc32)=N1 | 217 to 218 |
| COCCn1nc2c(N)nc3ccccc3c2c1CC(C)(C)O | 171 to 172 |
| Cc1c(Cl)cc(C=O)c(O)c1Cl | 94 to 95.1 |
| Cn1c(C(F)(F)F)cc(=O)n(-c2cc3c(cc2F)nc(C(F)(F)F)n3Cc2cccc(Cl)c2)c1=O | 91 to 93 |
| CCn1ncc2c3noc(-c4cccc(Cl)c4)c3cnc21 | 207 to 209 |
| O=C(Nc1cc(-c2nc(-c3ccco3)no2)ccc1Cl)OCC(Cl)(Cl)Cl | 114 to 116 |

Second part, the compound after the results:

| melting point [°C] | Compound |
| --- | --- |
| 255 to 257 | O=c1c2ccc(Cl)cc2[nH]c2c(O)nn(CC#Cc3ccccc3Cl)c(=O)c12 |
| 263 to 264 | Cc1nc2c3c(c(C(=O)N4CCCC4)cc2n1C)CCC1(Cc2ccccc2C1)N3 |
| 139 to 141 | Cn1c(CC#N)ccc1C(=O)c1ccc(Br)cc1 |
| 56 to 61 | O=C(NCCCCCCOC(=O)N1CCC(OC(=O)N2CCCCC2)CC1)Oc1ccc(Oc2ccccc2)cc1 |
| 250 | O=C(O)c1cn(Cc2ccccc2)c2cc(Cl)c(F)cc2c1=O |
| 98 to 100 | O=Cc1c(Cl)cc(Cl)cc1OCc1ccccc1 |
| 238 to 240 | CC(C)(C)Sc1c(CC(C)(C)C(=O)O)n(Cc2ccc(Cl)cc2)c2ccc(OCc3ccncc3)cc12 |
| 161 to 163 | CCOC(=O)c1c(CN2CCOCC2)nc2ccc(Cl)cc2c1-c1ccccc1 |
| 205 to 206 | CC(C)(C)OC(=O)C(CSCc1ccc(-c2ccc(-c3cccc4c3oc3ccccc34)cc2)cc1)C(=O)O (stereo not given) |
| 185 to 186 | Cc1cc(-c2cc(C(=O)O)c(=O)n(Cc3ccccc3Cl)n2)ccc1F |
| 90 | CN(C)CCOc1ccc(N2C(=O)C=C3CCCCC32)cc1 (stereo not given) |
| 127 to 129 | COc1ccc(C2C(N=[N+]=[N-])C(=O)N2c2ccc(C(=O)O)cc2)cc1 (stereo not given) |
| 99 to 100 | COCCOC(=O)C1=C(C)NC(C)=C(C(=O)OC(C)C)C1c1ccccc1F (stereo not given) |
| 241 to 243 | CC(=O)Oc1cc(-c2nc3ccccc3[nH]c2=O)cc([N+](=O)[O-])c1OC(C)=O |
| 87 to 88 | c1ccc2c(C3CNCCNCCNCCNCCN3)cccc2c1 (stereo not given) |
| 118 to 119 | CC(C)Oc1ccc(CCCOc2cc(CCC(=O)O)n(-c3ccccc3)n2)c(OCc2ccc(C(F)(F)F)cc2)c1 |
| 286 to 289 | C#Cc1cccc(Nc2ncnc3ccc(S(=O)(=O)n4ccc(C=CC(=O)O)c4)cc23)c1 |
| 210 to 218 | CC(C)c1ccc(S(=O)(=O)Nc2ccccc2C(=O)NCCc2ncc[nH]2)cc1 |
| 62 to 69 | CS(=O)(=O)Nc1cc([C@@H](O)CNC2CCN(c3ccc(S(=O)(=O)N4CCC[C@@H]4C(=O)OCc4ccccc4)cc3)CC2)ccc1O |

| melting point [°C] | Compound |
| --- | --- |
| 94.5 to 96 | CC(O)(C#Cc1ccc(C(=O)c2ccccc2)cc1)C(F)(F)F (stereo not given) |
| 189 to 191 | COC(=O)c1c(Cc2ccc(C(=O)CBr)cc2)c(=O)c2ccc(C)nc2n1-c1ccccc1 |
| 153 | CCCCOc1ccc2[nH]c(C(=O)O)cc2c1 |
| 128 to 129 | COc1cc(CCCC2OC(=O)NC2=O)ccc1OCc1nc(-c2ccccc2)sc1C (stereo not given) |
| 218 to 219 | C=CCSc1cc(C(=O)O)cc(S(N)(=O)=O)c1Oc1ccccc1 |
| 106 to 108 | CCCCCCCCCCCCCCCCCCOc1cc(N)cc([N+](=O)[O-])c1 |
| 157 to 158 | CC(C)n1nc(-c2sc(NCc3ccccc3)nc2-c2ccccc2)ccc1=O |
| 198 | O=C(Nc1cccc2c1C(=O)N(CC(=O)N1CCC(CO)CC1)C2=O)c1ccc(Cl)s1 |
| 135 to 145 | Cc1noc(NS(=O)(=O)c2ccccc2-c2ccc(-c3ncco3)cc2CN(C)C(=O)c2cc3ccccc3[nH]2)c1C |
| 145 to 149 | COc1cc(C(=O)N2Cc3ccc(C(=O)NCc4ccc(OC(F)(F)F)cc4)n3Cc3ccccc32)ccc1-c1ccccc1C |
| 125 to 128 | CCCOc1ccc2cc(OCc3ccccc3)c(C(=O)O)cc2c1 |
| 155 to 156 | O=[N+]([O-])c1cccc2nn(-c3ccccc3)nc12 |
| 204 to 206 | CCOC(=O)Cc1ccc(N2Cc3ccccc3C2=N)cc1 |
| 127 to 131 | CC(C)(C)OC(=O)NC1C2CN(CC(O)(c3ccccc3)c3ccccc3)CC21 (stereo not given) |
| 180 to 182 | COc1cc(N)c(Cl)cc1C(=O)NCCC1CN(Cc2ccc(C#N)cc2)CCO1 (stereo not given) |
| 242 to 244 | CN1CCN(c2ccc3c(=O)n4c(nc3c2)C(=O)c2cc(F)ccc2-4)CC1 |
| 64 to 65 | COC(=O)CCCCCCCC(=O)CCC(=O)COC(C)=O |
| 77 to 78 | CC(C)c1cccc(-c2ccc(F)cc2)c1OCCO |
